*1 amine or outer side, *2 acyl side, *3 side chain or, on linkers, in order; H or OH if unused. Where a SMILES comes first, the peptide text is derived from it. Side-chain parts run from the residue outwards. The star is where a group is joined. C18 diacid = O=C(O)CCCCCCCCCCCCCCCCC(=O)*; γGlu = O=C(O)[C@H](CCC(=O)[*:2])N[*:1]; Isovaleryl = CC(C)CC(=O)*; Ahx = NCCCCCC(=O)O
Experiments:
[1] = target: T1, Human Neuropeptide Y2 Receptor (Homo sapiens, UniProt P49146); assay: Radioligand binding competition assay (RLB); details: Table 3, 125I-PYY(1-36) competition; read-out: Ki
T1 construct: purchased CHEMICON HTS066M
T1 sequence (P49146 1-381): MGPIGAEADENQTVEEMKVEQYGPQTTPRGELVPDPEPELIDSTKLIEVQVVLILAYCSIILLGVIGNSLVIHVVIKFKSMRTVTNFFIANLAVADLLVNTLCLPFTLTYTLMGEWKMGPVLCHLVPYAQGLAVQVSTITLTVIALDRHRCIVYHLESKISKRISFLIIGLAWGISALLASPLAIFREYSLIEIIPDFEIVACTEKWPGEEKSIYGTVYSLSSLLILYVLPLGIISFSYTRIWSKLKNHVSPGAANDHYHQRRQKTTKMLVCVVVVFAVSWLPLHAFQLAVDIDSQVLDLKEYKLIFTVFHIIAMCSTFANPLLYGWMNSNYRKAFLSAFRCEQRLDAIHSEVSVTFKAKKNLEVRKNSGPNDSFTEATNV
Procedure, shortened: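 Displacement of radioligand is measured after 2 h at room temperature with receptor membranes in Mg2+/Ca2+ HEPES buffer, pH 7.4. Filter-bound radioactivity is counted and IC50 obtained from curve fitting.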

Solubility determination = details: for Sol6: pH 6; for Sol7: pH 7
Procedure, shortened: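 Sample: TFA-salt peptide at 10 mg/ml target in 0.1 M Na diphosphate, pH 6.4 or 7.0, shaken 2 h RT, filtered, diluted to 1 mg/ml.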

Row | Structure (SMILES) | Ki [1] | Sol6 (Solubility determination) | Sol7 (Solubility determination)
1 | CC(C)CC(=O)N[C@@H](C)C(=O)N1CCC[C@H]1C(=O)N[C@@H](CCC(=O)O)C(=O)N[C@@H](CCCCNC(=O)CCCCCNC(=O)CC[C@H](NC(=O)CCCCCCCCCCCCCCCCC(=O)O)C(=O)O)C(=O)N1CCC[C@H]1C(=O)N[C@@H](CCC(=O)O)C(=O)N[C@@H](CCC(=O)O)C(=O)N[C@@H](CC(=O)O)C(=O)N[C@@H](C)C(=O)N[C@H](C(=O)N[C@@H](CCC(=O)O)C(=O)N[C@@H](CCC(=O)O)C(=O)N[C@@H](CCC(=O)O)C(=O)N[C@@H](CC(C)C)C(=O)N[C@@H](CCC(N)=O)C(=O)N[C@@H](CCCNC(=N)N)C(=O)N[C@@H](Cc1ccc(O)cc1)C(=O)N[C@@H](Cc1ccc(O)cc1)C(=O)N[C@H](C(=O)N[C@@H](CO)C(=O)N[C@@H](CC(C)C)C(=O)N[C@@H](CCCNC(=N)N)C(=O)N[C@@H](Cc1c[nH]cn1)C(=O)N[C@@H](Cc1ccc(O)cc1)C(=O)N[C@@H](Cc1ccc(O)cc1)C(=O)N[C@@H](CC(N)=O)C(=O)N[C@@H](Cc1c[nH]c2ccccc12)C(=O)N[C@@H](CC(C)C)C(=O)N[C@H](C(=O)N[C@@H](CCCNC(=N)N)C(=O)N[C@@H](CCC(N)=O)C(=O)N[C@@H](CCCNC(=N)N)C(=O)N[C@@H](Cc1ccc(O)cc1)C(N)=O)[C@@H](C)O)C(C)C)[C@@H](C)O [Compound 19, N{alpha-4}-(3-methylbutanoyl)-N{epsilon-7}-(6-[(4S)-4-carboxy-4-(17-carboxyheptadecanamido)butanamido]hexanoyl)[4A,7K,9E,13T,14E,18Q,22V,28Y,30W,31L]-hPYY(4-36)] | 9.63 nM | 10.0 mg/mL | 9.2 mg/mL
2 | CC(C)CC(=O)N[C@@H](C)C(=O)N1CCC[C@H]1C(=O)N[C@@H](CCC(=O)O)C(=O)N[C@@H](CCCCNC(=O)CCCCCNC(=O)CC[C@H](NC(=O)CCCCCCCCCCCCCCCCC(=O)O)C(=O)O)C(=O)N1CCC[C@H]1C(=O)N[C@@H](CCC(=O)O)C(=O)N[C@@H](CCC(=O)O)C(=O)N[C@@H](CCC(N)=O)C(=O)N[C@@H](C)C(=O)N[C@H](C(=O)N1CCC[C@H]1C(=O)N[C@@H](CCC(=O)O)C(=O)N[C@@H](CCC(=O)O)C(=O)N[C@@H](CC(C)C)C(=O)N[C@@H](CCC(N)=O)C(=O)N[C@@H](CCCNC(=N)N)C(=O)N[C@@H](Cc1ccc(O)cc1)C(=O)N[C@@H](Cc1ccc(O)cc1)C(=O)N[C@H](C(=O)N[C@@H](CO)C(=O)N[C@@H](CC(C)C)C(=O)N[C@@H](CCCNC(=N)N)C(=O)N[C@@H](Cc1c[nH]cn1)C(=O)N[C@@H](Cc1ccc(O)cc1)C(=O)N[C@@H](Cc1ccc(O)cc1)C(=O)N[C@@H](CC(N)=O)C(=O)N[C@@H](Cc1c[nH]c2ccccc12)C(=O)N[C@@H](CC(C)C)C(=O)N[C@H](C(=O)N[C@@H](CCCNC(=N)N)C(=O)N[C@@H](CCC(N)=O)C(=O)N[C@@H](CCCNC(=N)N)C(=O)N[C@@H](Cc1ccc(O)cc1)C(N)=O)[C@@H](C)O)C(C)C)[C@@H](C)O [Compound 9, N{alpha-4}-(3-methylbutanoyl)-N{epsilon-7}-(6-[(4S)-4-carboxy-4-(17-carboxyheptadecanamido)butanamido]hexanoyl)[4A,7K,9E,11Q,13T,18Q,22V,28Y,30W,31L]-hPYY(4-36)] | 3.32 nM | 9.7 mg/mL | 9.9 mg/mL
3 | CC(C)CC(=O)N[C@@H](C)C(=O)N1CCC[C@H]1C(=O)N[C@@H](CCC(=O)O)C(=O)N[C@@H](CCCCNC(=O)CCCCCNC(=O)CC[C@H](NC(=O)CCCCCCCCCCCCCCCCC(=O)O)C(=O)O)C(=O)N1CCC[C@H]1C(=O)N[C@@H](CCC(=O)O)C(=O)N[C@@H](CCC(=O)O)C(=O)N[C@@H](CC(=O)O)C(=O)N[C@@H](CO)C(=O)N[C@@H](CO)C(=O)N1CCC[C@H]1C(=O)N[C@@H](CCC(=O)O)C(=O)N[C@@H](CCC(=O)O)C(=O)N[C@@H](CC(C)C)C(=O)N[C@@H](CCC(N)=O)C(=O)N[C@@H](CCCNC(=N)N)C(=O)N[C@@H](Cc1ccc(O)cc1)C(=O)N[C@@H](Cc1ccc(O)cc1)C(=O)N[C@H](C(=O)N[C@@H](C)C(=O)N[C@@H](CC(C)C)C(=O)N[C@@H](CCCNC(=N)N)C(=O)N[C@@H](Cc1c[nH]cn1)C(=O)N[C@@H](Cc1ccc(O)cc1)C(=O)N[C@@H](Cc1ccc(O)cc1)C(=O)N[C@@H](CC(N)=O)C(=O)N[C@@H](Cc1c[nH]c2ccccc12)C(=O)N[C@@H](CC(C)C)C(=O)N[C@H](C(=O)N[C@@H](CCCNC(=N)N)C(=O)N[C@@H](CCC(N)=O)C(=O)N[C@@H](CCCNC(=N)N)C(=O)N[C@@H](Cc1ccc(O)cc1)C(N)=O)[C@@H](C)O)C(C)C [Compound 24, N{alpha-4}-(3-methylbutanoyl)-N{epsilon-7}-(6-[(4S)-4-carboxy-4-(17-carboxyheptadecanamido)butanamido]hexanoyl)[4A,7K,9E,12S,18Q,22V,23A,28Y,30W,31L]-hPYY(4-36)] | 3.39 nM | 9.8 mg/mL | 10.0 mg/mL

Now those with a lower Ki [1], led by results:

Row | Ki [1] | Sol6 (Solubility determination) | Sol7 (Solubility determination) | Structure (SMILES)
4 | 0.54 nM | 0.1 mg/mL | 9.5 mg/mL | CC(C)CC(=O)N[C@@H](C)C(=O)N1CCC[C@H]1C(=O)N[C@@H](CCC(=O)O)C(=O)N[C@@H](CCCCNC(=O)CCCCCNC(=O)CC[C@H](NC(=O)CCCCCCCCCCCCCCCCC(=O)O)C(=O)O)C(=O)N1CCC[C@H]1C(=O)N1CCC[C@H]1C(=O)N[C@@H](C)C(=O)N[C@@H](CC(=O)O)C(=O)N[C@@H](C)C(=O)N[C@@H](CO)C(=O)N1CCC[C@H]1C(=O)N[C@@H](CCC(=O)O)C(=O)N[C@@H](CCC(=O)O)C(=O)N[C@H](C(=O)N[C@@H](CCC(N)=O)C(=O)N[C@@H](CCCNC(=N)N)C(=O)N[C@@H](Cc1ccc(O)cc1)C(=O)N[C@@H](Cc1ccc(O)cc1)C(=O)N[C@H](C(=O)N[C@@H](CO)C(=O)N[C@@H](CC(C)C)C(=O)N[C@@H](CCCNC(=N)N)C(=O)N[C@@H](Cc1c[nH]cn1)C(=O)N[C@@H](Cc1ccc(O)cc1)C(=O)N[C@@H](Cc1ccc(O)cc1)C(=O)N[C@@H](CC(N)=O)C(=O)N[C@@H](Cc1c[nH]c2ccccc12)C(=O)N[C@@H](CC(C)C)C(=O)N[C@H](C(=O)N[C@@H](CCCNC(=N)N)C(=O)N[C@@H](CCC(N)=O)C(=O)N[C@@H](CCCNC(=N)N)C(=O)N[C@@H](Cc1ccc(O)cc1)C(N)=O)[C@@H](C)O)C(C)C)[C@@H](C)O [Compound 69, N{alpha-4}-(3-methylbutanoyl)-N{epsilon-7}-(6-[(4S)-4-carboxy-4-(17-carboxyheptadecanamido)butanamido]hexanoyl)-[4A,7K,9P,10A,17T,18Q,22V,28Y,30W,31L]-hPYY(4-36)] (Isovaleryl-APEK([Ahx-γGlu-C18 diacid])PPADASPEETQRYYVSLRHYYNWLTRQRY-NH2)
5 | 2.85 nM | 9.7 mg/mL | 10.0 mg/mL | CC(C)CC(=O)N[C@@H](C)C(=O)N1CCC[C@H]1C(=O)N[C@@H](CCC(=O)O)C(=O)N[C@@H](CCCCNC(=O)CCCCCNC(=O)CC[C@H](NC(=O)CCCCCCCCCCCCCCCCC(=O)O)C(=O)O)C(=O)N1CCC[C@H]1C(=O)N[C@@H](CCC(=O)O)C(=O)N[C@@H](CCC(=O)O)C(=O)N[C@@H](CC(=O)O)C(=O)N[C@@H](C)C(=O)N[C@H](C(=O)N1CCC[C@H]1C(=O)N[C@@H](CCC(=O)O)C(=O)N[C@@H](CCC(=O)O)C(=O)N[C@@H](CC(C)C)C(=O)N[C@@H](CCC(N)=O)C(=O)N[C@@H](CCCNC(=N)N)C(=O)N[C@@H](Cc1ccc(O)cc1)C(=O)N[C@@H](Cc1ccc(O)cc1)C(=O)N[C@H](C(=O)N[C@H](C(=O)N[C@@H](CC(C)C)C(=O)N[C@@H](CCCNC(=N)N)C(=O)N[C@@H](Cc1c[nH]cn1)C(=O)N[C@@H](Cc1ccc(O)cc1)C(=O)N[C@@H](Cc1ccc(O)cc1)C(=O)N[C@@H](CC(N)=O)C(=O)N[C@@H](Cc1c[nH]c2ccccc12)C(=O)N[C@@H](CC(C)C)C(=O)N[C@H](C(=O)N[C@@H](CCCNC(=N)N)C(=O)N[C@@H](CCC(N)=O)C(=O)N[C@@H](CCCNC(=N)N)C(=O)N[C@@H](Cc1ccc(O)cc1)C(N)=O)[C@@H](C)O)[C@@H](C)O)C(C)C)[C@@H](C)O [Compound 148, N{alpha-4}-(3-methylbutanoyl)-N{epsilon-7}-(6-[(4S)-4-carboxy-4-(17-carboxyheptadecanamido)butanamido]hexanoyl)-[4A,7K,9E,13T,18Q,22V,23T,28Y,30W,31L]-hPYY(4-36)]
